ChEMBL document CHEMBL3784957, “Patterns of biofilm structure and formation kinetics among Acinetobacter baumannii clinical isolates with different antibiotic resistance profiles” (2016)
≈ marks a conversion by molar mass, not a printed value.

system: Acinetobacter baumannii; assay: Antimicrobial activity against Acinetobacter baumannii isolate 3 by broth microdilution assay; format: functional

| SMILES | MIC [µg/mL] |
| --- | --- |
| C[C@H]1COc2c(N3CCN(C)CC3)c(F)cc3c(=O)c(C(=O)O)cn1c23.C[C@H]1COc2c(N3CCN(C)CC3)c(F)cc3c(=O)c(C(=O)O)cn1c23.O [LEVOFLOXACIN] | > 4 |
| CN(C)c1ccc(O)c2c1C[C@H]1C[C@H]3[C@H](N(C)C)C(O)=C(C(N)=O)C(=O)[C@@]3(O)C(O)=C1C2=O [MINOCYCLINE] | 2 (≈ 4.37 µM) |
| NCC[C@H](O)C(=O)N[C@@H]1C[C@H](N)[C@@H](O[C@H]2O[C@H](CN)[C@@H](O)[C@H](O)[C@H]2O)[C@H](O)[C@H]1O[C@H]1O[C@H](CO)[C@@H](O)[C@H](N)[C@H]1O [AMIKACIN] | ≤ 2 |

system: Acinetobacter baumannii; assay: Antimicrobial activity against Acinetobacter baumannii isolate 9 by broth microdilution assay; format: functional

| SMILES | MIC [µg/mL] |
| --- | --- |
| C[C@H]1COc2c(N3CCN(C)CC3)c(F)cc3c(=O)c(C(=O)O)cn1c23.C[C@H]1COc2c(N3CCN(C)CC3)c(F)cc3c(=O)c(C(=O)O)cn1c23.O [LEVOFLOXACIN] | > 4 |
| CN(C)c1ccc(O)c2c1C[C@H]1C[C@H]3[C@H](N(C)C)C(O)=C(C(N)=O)C(=O)[C@@]3(O)C(O)=C1C2=O [MINOCYCLINE] | 8 (≈ 17.5 µM) |
| NCC[C@H](O)C(=O)N[C@@H]1C[C@H](N)[C@@H](O[C@H]2O[C@H](CN)[C@@H](O)[C@H](O)[C@H]2O)[C@H](O)[C@H]1O[C@H]1O[C@H](CO)[C@@H](O)[C@H](N)[C@H]1O [AMIKACIN] | > 32 |

system: Acinetobacter baumannii; assay: Antimicrobial activity against Acinetobacter baumannii isolate 12 by broth microdilution assay; format: functional

| SMILES | MIC [µg/mL] |
| --- | --- |
| C[C@H]1COc2c(N3CCN(C)CC3)c(F)cc3c(=O)c(C(=O)O)cn1c23.C[C@H]1COc2c(N3CCN(C)CC3)c(F)cc3c(=O)c(C(=O)O)cn1c23.O [LEVOFLOXACIN] | > 4 |
| CN(C)c1ccc(O)c2c1C[C@H]1C[C@H]3[C@H](N(C)C)C(O)=C(C(N)=O)C(=O)[C@@]3(O)C(O)=C1C2=O [MINOCYCLINE] | ≤ 1 |
| NCC[C@H](O)C(=O)N[C@@H]1C[C@H](N)[C@@H](O[C@H]2O[C@H](CN)[C@@H](O)[C@H](O)[C@H]2O)[C@H](O)[C@H]1O[C@H]1O[C@H](CO)[C@@H](O)[C@H](N)[C@H]1O [AMIKACIN] | 8 (≈ 13.7 µM) |

system: Acinetobacter baumannii; assay: Antimicrobial activity against Acinetobacter baumannii isolate 15 by broth microdilution assay; format: functional

| SMILES | MIC [µg/mL] |
| --- | --- |
| C[C@H]1COc2c(N3CCN(C)CC3)c(F)cc3c(=O)c(C(=O)O)cn1c23.C[C@H]1COc2c(N3CCN(C)CC3)c(F)cc3c(=O)c(C(=O)O)cn1c23.O [LEVOFLOXACIN] | > 4 |
| CN(C)c1ccc(O)c2c1C[C@H]1C[C@H]3[C@H](N(C)C)C(O)=C(C(N)=O)C(=O)[C@@]3(O)C(O)=C1C2=O [MINOCYCLINE] | ≤ 1 |
| NCC[C@H](O)C(=O)N[C@@H]1C[C@H](N)[C@@H](O[C@H]2O[C@H](CN)[C@@H](O)[C@H](O)[C@H]2O)[C@H](O)[C@H]1O[C@H]1O[C@H](CO)[C@@H](O)[C@H](N)[C@H]1O [AMIKACIN] | 16 (≈ 27.3 µM) |

system: Acinetobacter baumannii; assay: Antimicrobial activity against Acinetobacter baumannii isolate 20 by broth microdilution assay; format: functional

| SMILES | MIC [µg/mL] |
| --- | --- |
| C[C@H]1COc2c(N3CCN(C)CC3)c(F)cc3c(=O)c(C(=O)O)cn1c23.C[C@H]1COc2c(N3CCN(C)CC3)c(F)cc3c(=O)c(C(=O)O)cn1c23.O [LEVOFLOXACIN] | > 4 |
| CN(C)c1ccc(O)c2c1C[C@H]1C[C@H]3[C@H](N(C)C)C(O)=C(C(N)=O)C(=O)[C@@]3(O)C(O)=C1C2=O [MINOCYCLINE] | 8 (≈ 17.5 µM) |
| NCC[C@H](O)C(=O)N[C@@H]1C[C@H](N)[C@@H](O[C@H]2O[C@H](CN)[C@@H](O)[C@H](O)[C@H]2O)[C@H](O)[C@H]1O[C@H]1O[C@H](CO)[C@@H](O)[C@H](N)[C@H]1O [AMIKACIN] | > 32 |

system: Acinetobacter baumannii; assay: Antimicrobial activity against Acinetobacter baumannii isolate 26 by broth microdilution assay; format: functional

| SMILES | MIC [µg/mL] |
| --- | --- |
| C[C@H]1COc2c(N3CCN(C)CC3)c(F)cc3c(=O)c(C(=O)O)cn1c23.C[C@H]1COc2c(N3CCN(C)CC3)c(F)cc3c(=O)c(C(=O)O)cn1c23.O [LEVOFLOXACIN] | > 4 |
| CN(C)c1ccc(O)c2c1C[C@H]1C[C@H]3[C@H](N(C)C)C(O)=C(C(N)=O)C(=O)[C@@]3(O)C(O)=C1C2=O [MINOCYCLINE] | 2 (≈ 4.37 µM) |
| NCC[C@H](O)C(=O)N[C@@H]1C[C@H](N)[C@@H](O[C@H]2O[C@H](CN)[C@@H](O)[C@H](O)[C@H]2O)[C@H](O)[C@H]1O[C@H]1O[C@H](CO)[C@@H](O)[C@H](N)[C@H]1O [AMIKACIN] | ≤ 2 |

system: Acinetobacter baumannii; assay: Antimicrobial activity against Acinetobacter baumannii isolate 30 by broth microdilution assay; format: functional

| SMILES | MIC [µg/mL] |
| --- | --- |
| C[C@H]1COc2c(N3CCN(C)CC3)c(F)cc3c(=O)c(C(=O)O)cn1c23.C[C@H]1COc2c(N3CCN(C)CC3)c(F)cc3c(=O)c(C(=O)O)cn1c23.O [LEVOFLOXACIN] | > 4 |
| CN(C)c1ccc(O)c2c1C[C@H]1C[C@H]3[C@H](N(C)C)C(O)=C(C(N)=O)C(=O)[C@@]3(O)C(O)=C1C2=O [MINOCYCLINE] | ≤ 1 |
| NCC[C@H](O)C(=O)N[C@@H]1C[C@H](N)[C@@H](O[C@H]2O[C@H](CN)[C@@H](O)[C@H](O)[C@H]2O)[C@H](O)[C@H]1O[C@H]1O[C@H](CO)[C@@H](O)[C@H](N)[C@H]1O [AMIKACIN] | 4 (≈ 6.83 µM) |

system: Acinetobacter baumannii; assay: Antimicrobial activity against Acinetobacter baumannii isolate 35 by broth microdilution assay; format: functional

| SMILES | MIC [µg/mL] |
| --- | --- |
| C[C@H]1COc2c(N3CCN(C)CC3)c(F)cc3c(=O)c(C(=O)O)cn1c23.C[C@H]1COc2c(N3CCN(C)CC3)c(F)cc3c(=O)c(C(=O)O)cn1c23.O [LEVOFLOXACIN] | > 4 |
| CN(C)c1ccc(O)c2c1C[C@H]1C[C@H]3[C@H](N(C)C)C(O)=C(C(N)=O)C(=O)[C@@]3(O)C(O)=C1C2=O [MINOCYCLINE] | ≤ 1 |
| NCC[C@H](O)C(=O)N[C@@H]1C[C@H](N)[C@@H](O[C@H]2O[C@H](CN)[C@@H](O)[C@H](O)[C@H]2O)[C@H](O)[C@H]1O[C@H]1O[C@H](CO)[C@@H](O)[C@H](N)[C@H]1O [AMIKACIN] | ≤ 2 |

system: Acinetobacter baumannii; assay: Antimicrobial activity against Acinetobacter baumannii isolate 38 by broth microdilution assay; format: functional

| SMILES | MIC [µg/mL] |
| --- | --- |
| C[C@H]1COc2c(N3CCN(C)CC3)c(F)cc3c(=O)c(C(=O)O)cn1c23.C[C@H]1COc2c(N3CCN(C)CC3)c(F)cc3c(=O)c(C(=O)O)cn1c23.O [LEVOFLOXACIN] | ≤ 0.12 |
| CN(C)c1ccc(O)c2c1C[C@H]1C[C@H]3[C@H](N(C)C)C(O)=C(C(N)=O)C(=O)[C@@]3(O)C(O)=C1C2=O [MINOCYCLINE] | ≤ 1 |
| NCC[C@H](O)C(=O)N[C@@H]1C[C@H](N)[C@@H](O[C@H]2O[C@H](CN)[C@@H](O)[C@H](O)[C@H]2O)[C@H](O)[C@H]1O[C@H]1O[C@H](CO)[C@@H](O)[C@H](N)[C@H]1O [AMIKACIN] | ≤ 2 |

system: Acinetobacter baumannii; assay: Antimicrobial activity against Acinetobacter baumannii isolate 45 by broth microdilution assay; format: functional

| SMILES | MIC [µg/mL] |
| --- | --- |
| C[C@H]1COc2c(N3CCN(C)CC3)c(F)cc3c(=O)c(C(=O)O)cn1c23.C[C@H]1COc2c(N3CCN(C)CC3)c(F)cc3c(=O)c(C(=O)O)cn1c23.O [LEVOFLOXACIN] | > 4 |
| CN(C)c1ccc(O)c2c1C[C@H]1C[C@H]3[C@H](N(C)C)C(O)=C(C(N)=O)C(=O)[C@@]3(O)C(O)=C1C2=O [MINOCYCLINE] | 2 (≈ 4.37 µM) |
| NCC[C@H](O)C(=O)N[C@@H]1C[C@H](N)[C@@H](O[C@H]2O[C@H](CN)[C@@H](O)[C@H](O)[C@H]2O)[C@H](O)[C@H]1O[C@H]1O[C@H](CO)[C@@H](O)[C@H](N)[C@H]1O [AMIKACIN] | ≤ 2 |

system: Acinetobacter baumannii; assay: Antimicrobial activity against Acinetobacter baumannii isolate 52 by broth microdilution assay; format: functional

| SMILES | MIC [µg/mL] |
| --- | --- |
| C[C@H]1COc2c(N3CCN(C)CC3)c(F)cc3c(=O)c(C(=O)O)cn1c23.C[C@H]1COc2c(N3CCN(C)CC3)c(F)cc3c(=O)c(C(=O)O)cn1c23.O [LEVOFLOXACIN] | > 4 |
| CN(C)c1ccc(O)c2c1C[C@H]1C[C@H]3[C@H](N(C)C)C(O)=C(C(N)=O)C(=O)[C@@]3(O)C(O)=C1C2=O [MINOCYCLINE] | ≤ 1 |
| NCC[C@H](O)C(=O)N[C@@H]1C[C@H](N)[C@@H](O[C@H]2O[C@H](CN)[C@@H](O)[C@H](O)[C@H]2O)[C@H](O)[C@H]1O[C@H]1O[C@H](CO)[C@@H](O)[C@H](N)[C@H]1O [AMIKACIN] | ≤ 2 |

system: Acinetobacter baumannii; assay: Antimicrobial activity against Acinetobacter baumannii isolate 59 by broth microdilution assay; format: functional

| SMILES | MIC [µg/mL] |
| --- | --- |
| C[C@H]1COc2c(N3CCN(C)CC3)c(F)cc3c(=O)c(C(=O)O)cn1c23.C[C@H]1COc2c(N3CCN(C)CC3)c(F)cc3c(=O)c(C(=O)O)cn1c23.O [LEVOFLOXACIN] | ≤ 0.12 |
| CN(C)c1ccc(O)c2c1C[C@H]1C[C@H]3[C@H](N(C)C)C(O)=C(C(N)=O)C(=O)[C@@]3(O)C(O)=C1C2=O [MINOCYCLINE] | ≤ 1 |
| NCC[C@H](O)C(=O)N[C@@H]1C[C@H](N)[C@@H](O[C@H]2O[C@H](CN)[C@@H](O)[C@H](O)[C@H]2O)[C@H](O)[C@H]1O[C@H]1O[C@H](CO)[C@@H](O)[C@H](N)[C@H]1O [AMIKACIN] | ≤ 2 |
